{"source": "patent US11116752B2", "about": "“Pharmaceutical composition comprising bicyclo-substituted pyrazolon azo derivative or salt thereof and preparation method thereof” (Jiangsu Hengrui Medicine Co., Ltd., priority 2016, dated 2021)", "test": "Stability test of Compound B and its mixtures with fillers (1:10)", "format": "physicochemical", "description": "The Compound B was mixed respectively with cellulose-lactose (cellactose 80), a simple mixture of cellulose and lactose (75%:25%), spray-dried lactose (Flowlac 100), microcrystalline cellulose PH302, or microcrystalline cellulose PH102 in a ratio of 1:10. The above mixtures and Compound B were placed respectively under conditions of 40° C./RH75%/open, 40° C./RH75%/closed, or 60° C./closed for 2 weeks and 4 weeks."}
{"molecule": "CC1=NN(c2ccc3c(c2)CCCC3)C(=O)/C1=N\\Nc1cccc(-c2ccc(C(=O)O)o2)c1O", "note": "[Compound B, (Z)-5-(2-hydroxy-3-(2-(3-methyl-5-oxo-1-(5,6,7,8-tetrahydronaphthalen-2-yl)-1H-pyrazol-4(5H)-ylidene)hydrazino)phenyl)furan-2-carboxylic acid]", "values": [{"measurement": "Appearance", "setting": "40° C./RH75%/closed, 2 Weeks", "result": "Dark red powder"}, {"measurement": "Related substances (%)", "setting": "40° C./RH75%/closed, 2 Weeks", "result": 1.08, "unit": "%"}, {"measurement": "Appearance", "setting": "40° C./RH75%/closed, 4 Weeks", "result": "Dark red powder"}, {"measurement": "Related substances (%)", "setting": "40° C./RH75%/closed, 4 Weeks", "result": 1.18, "unit": "%"}, {"measurement": "Appearance", "setting": "40° C./RH75%/open, 2 Weeks", "result": "Dark red mass"}, {"measurement": "Related substances (%)", "setting": "40° C./RH75%/open, 2 Weeks", "result": 1.32, "unit": "%"}, {"measurement": "Appearance", "setting": "40° C./RH75%/open, 4 Weeks", "result": "Dark red mass"}, {"measurement": "Related substances (%)", "setting": "40° C./RH75%/open, 4 Weeks", "result": 1.93, "unit": "%"}, {"measurement": "Appearance", "setting": "60° C./closed, 2 Weeks", "result": "Dark red mass"}, {"measurement": "Related substances (%)", "setting": "60° C./closed, 2 Weeks", "result": 3.05, "unit": "%"}, {"measurement": "Appearance", "setting": "60° C./closed, 4 Weeks", "result": "Dark red mass"}, {"measurement": "Related substances (%)", "setting": "60° C./closed, 4 Weeks", "result": 4.84, "unit": "%"}, {"measurement": "Appearance", "setting": "Initial point, 0 Day", "result": "Dark red powder"}, {"measurement": "Related substances (%)", "setting": "Initial point, 0 Day", "result": 0.90, "unit": "%"}]}
